Measurements taken from PMC6934184, “Selective DNA-PKcs inhibition extends the therapeutic index of localized radiotherapy and chemotherapy” (The Journal of Clinical Investigation, 2019).

Tests used:
MCF7 cells = test: γH2AX foci nuclear fluorescence after 2.5 Gy; assay type: cell-based, Human; settings: 1 μM, 0–24 hours after irradiation
Method: Cell line γH2AX and 53BP1 foci immunofluorescence and quantitation
Cells grown on coverslips or in 96-well plates were treated with 1 or 5 µM NU5455 or DMSO 1 hour prior to irradiation (0, 2.5 or 10 Gy) using an RS 320 X-ray Research System (Gulmay Medical). At set timepoints (15 or 30 minutes, or 1, 4, 5, 6, or 24 hours post-irradiation), cells were washed and fixed in methanol or 3% paraformaldehyde (PFA). Cells were blocked and permeabilized in 1% (v/v) goat serum/1% (w/v) BSA/0.1% (v/v) Triton X100 or 0.1% (v/v) Triton X100 containing 10% (w/v) dried milk powder and 2% (w/v) bovine serum albumin, followed by incubation with antibodies against γH2AX (JBW301, Millipore #05-636) and/or 53BP1 (Cell Signaling #4937). Cells were then washed and incubated with Alexa Fluor 488 goat anti-mouse and/or Alexa Fluor 568 goat anti -rabbit antibodies (A11001 or A11011 respectively, Invitrogen). In A549 and Calu-6, cells were Hoechst stained (5 µg/ml), and the average numbers of γH2AX and 53BP1 foci per cell were quantified from 400 nuclei per sample using an In Cell analyzer 1000 (GE Healthcare). For MCF7 cells, coverslips were mounted using Vectashield mounting medium with DAPI (Vector Labs) and imaged using a Leica TCS SPE confocal fluorescence microscope. Total fluorescence intensity was determined using ImagePro Plus 5.0 software (Media Cybernetics).
Clonogenic survival assays […]

[1] = test system: Huh7 subcutaneous xenografts; test: subcutaneous Huh7 xenograft with intratumoral doxorubicin-eluting beads; assay type: in vivo, CD-1 nude mice
Method: DC M1 beads were loaded with doxorubicin at 25 mg/mL as described in Supplemental Methods. Huh7 cells (5 × 10^6 cells per mouse in 50 μL, 50% vol/vol Matrigel) were implanted s.c. into the right flank of female CD-1 nude mice to generate subcutaneous Huh7 xenografts (180–220 mm^3). Mice were then treated with 5 μL doxorubicin-loaded or unloaded beads suspended in 30 μL saline administered via an intratumoral injection along the length of each tumor using a 29G needle. One hour after bead implantation, twice-daily dosing with 30 mg/kg NU5455 or vehicle control (1% vol/vol acetic acid in water) was commenced via oral gavage (9-hour dosing interval) and continued for up to 20 days. Tumor volumes were calculated daily using bilateral caliper measurements as described in Supplemental Methods, and body weight measurements taken daily throughout treatment. […]
γH2AX immunohistochemistry in HCC tumor xenografts
FFPE tumor sections (4 µm) were dewaxed in xylene and hydrated in descending concentrations of ethanol. Endogenous tissue peroxidase activity was quenched using 3% v/v hydrogen peroxide. Antigen retrieval was performed using 1 mM EDTA, pH 8.0 in a microwave (Kenwood). Tissue sections were blocked for avidin and biotin using the […]
Avidin/Biotin Blocking Kit (Vector Laboratories), and washed in TBST be tween all subsequent steps. Slides were blocked in 20% v/v pig serum in DI water, and sections incubated with an antibody against γH2AX ( 20E3, Cell Signaling Technology #9718, 1 in 200 in TBST) in a humidified container at 4°C overnight.
Sections were th en incubated with polyclonal swine anti -rabbit IgG, biotinylated (Dako #E0353, 1 in 200 in TBST), followed by VectaStain RTU Elite ABC reagent (Vector Laboratories). Slides were stained using DAB Peroxidase Substrate Kit (Vector Laboratories) prepared according to the manufacturer’s instructions. Slides were washed in DI water, then counterstained in filtered haematoxylin s olution. Background staining was minimized by exposure to acid alcohol solution (1% v/v hydrochloric acid in 70% v/v ethanol, Fisher), and staining blued by incubation in Scott’s tap water. Stained slides were then dehydrated in ascending concentrations of ethanol, followed by clearing in xylene. Glass coverslips (Dako) were mounted onto slides using DPX mounting medium. pDNA-PKcs Ser2056 immunohistochemistry in HCC tumor xenografts
Tumor sections were dewaxed in xylene, hydrated, and endogenous peroxidase activity quenched as detailed above. Antigen retrieval was performed in 1X citrate buffer (10 mM citric acid (Acros), pH 6.0 + 0.5% v/v Tween 20), using a decloaker (A. Menarini Diagnostics).
Tissue sections were blocked in 1% w/v BSA and 1% v/v normal go at serum in PBS (1 hour, RT). Sections were then incubated at 4°C overnight in a humidified container with an antibody against pDNA -PKcs Ser2056 (Abcam #18192, 1:1000 in 1% w/v BSA and 1% v/v […]
Sections were washed with TBST before incuba tion with EnVision+ anti -rabbit Polymer-HRP solution (Dako #K4002). Slides were washed in TBST , and antibody conjugates visualized by incubation with ImmPACT DAB peroxidase substrate working solution. […]
IHC slides were digitized via conversion using the Aperio ScanScope CS Brightfield scanner (Leica Biosystems) at x20 zoom. Percentage hepatocyte nuclear positivity for pDNA -PKcs Ser2056 and γH2AX was determined using a nuclear algorithm generated with the Aperio ImageScope software v11.2.0.780 (Leica Biosystems). […]

PI3K-C2α = PI3K-C2α (Homo sapiens, UniProt O00443); test: SelectScreen Profiling IC50; assay type: biochemical
Method: (§1) The in vitro kinase selectivity of NU5455 was determined using the SelectScreen Broad Assay Panel (Thermo Fisher Scientific) involving activity and binding assays (Supplemental Table 1). […] Class IA PI3Ks were measured using the p85α subunit.
(§2) PI3K Kinase NU5455 IC (nM) Fold selectivity
(§3) Supplemental Table 2. NU5455 potency and selectivity across the PI3K kinase family.
(§4) µM NU5455 for DNA-PK versus other PIKK and PI3K family members was assessed by SelectScreen Profiling (Life Technologies). The
(§5) ATP concentration was the Kmapp except for * where the ATP concentration was 10 μM (mean ± SEM, n=4-7).

PI3K-C2γ = PI3K-C2γ (Homo sapiens, UniProt O75747); test: SelectScreen Profiling IC50; assay type: biochemical
Method: as §1, §2, §3, §4, §5

[2] = cell-free, ATP Km app, read-out: NU5455 IC50

Chain of PI3K-C2γ (O75747 whole entry): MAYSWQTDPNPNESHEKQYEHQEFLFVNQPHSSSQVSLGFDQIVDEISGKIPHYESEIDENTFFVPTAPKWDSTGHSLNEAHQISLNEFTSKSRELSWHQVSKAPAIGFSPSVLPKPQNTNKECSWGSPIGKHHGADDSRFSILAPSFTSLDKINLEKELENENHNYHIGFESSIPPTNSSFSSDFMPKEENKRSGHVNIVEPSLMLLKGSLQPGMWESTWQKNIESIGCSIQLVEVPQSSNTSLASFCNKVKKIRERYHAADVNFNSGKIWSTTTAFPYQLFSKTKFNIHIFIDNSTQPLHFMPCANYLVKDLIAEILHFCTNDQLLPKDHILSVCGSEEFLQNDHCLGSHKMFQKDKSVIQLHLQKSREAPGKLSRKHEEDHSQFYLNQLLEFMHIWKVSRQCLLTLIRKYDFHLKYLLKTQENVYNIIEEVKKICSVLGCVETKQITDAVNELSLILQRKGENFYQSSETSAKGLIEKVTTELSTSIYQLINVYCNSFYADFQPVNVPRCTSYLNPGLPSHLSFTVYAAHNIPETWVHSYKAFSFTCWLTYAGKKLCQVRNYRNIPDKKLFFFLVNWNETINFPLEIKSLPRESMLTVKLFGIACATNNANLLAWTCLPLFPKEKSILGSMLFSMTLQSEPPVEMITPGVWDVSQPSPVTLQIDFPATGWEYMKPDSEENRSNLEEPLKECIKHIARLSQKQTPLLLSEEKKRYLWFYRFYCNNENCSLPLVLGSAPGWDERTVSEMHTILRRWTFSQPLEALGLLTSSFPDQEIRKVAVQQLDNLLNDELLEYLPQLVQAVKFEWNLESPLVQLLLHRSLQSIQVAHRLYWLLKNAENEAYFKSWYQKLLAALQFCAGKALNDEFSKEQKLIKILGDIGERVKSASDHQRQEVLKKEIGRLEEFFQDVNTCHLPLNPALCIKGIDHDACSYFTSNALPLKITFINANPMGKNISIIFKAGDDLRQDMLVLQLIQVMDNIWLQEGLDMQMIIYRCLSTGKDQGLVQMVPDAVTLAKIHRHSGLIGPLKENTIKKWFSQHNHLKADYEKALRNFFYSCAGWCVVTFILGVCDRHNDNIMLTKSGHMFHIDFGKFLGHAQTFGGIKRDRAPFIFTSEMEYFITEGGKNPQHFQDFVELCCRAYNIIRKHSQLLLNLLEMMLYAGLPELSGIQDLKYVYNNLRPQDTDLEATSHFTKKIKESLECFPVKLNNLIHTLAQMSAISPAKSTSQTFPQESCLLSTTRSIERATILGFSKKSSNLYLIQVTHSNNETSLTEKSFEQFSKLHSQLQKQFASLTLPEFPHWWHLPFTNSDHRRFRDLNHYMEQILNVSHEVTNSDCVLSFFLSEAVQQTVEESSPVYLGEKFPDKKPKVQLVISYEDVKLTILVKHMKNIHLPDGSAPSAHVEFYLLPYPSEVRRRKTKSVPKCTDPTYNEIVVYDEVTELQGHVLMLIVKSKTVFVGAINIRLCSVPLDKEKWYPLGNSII
Chain of PI3K-C2α (O00443 whole entry): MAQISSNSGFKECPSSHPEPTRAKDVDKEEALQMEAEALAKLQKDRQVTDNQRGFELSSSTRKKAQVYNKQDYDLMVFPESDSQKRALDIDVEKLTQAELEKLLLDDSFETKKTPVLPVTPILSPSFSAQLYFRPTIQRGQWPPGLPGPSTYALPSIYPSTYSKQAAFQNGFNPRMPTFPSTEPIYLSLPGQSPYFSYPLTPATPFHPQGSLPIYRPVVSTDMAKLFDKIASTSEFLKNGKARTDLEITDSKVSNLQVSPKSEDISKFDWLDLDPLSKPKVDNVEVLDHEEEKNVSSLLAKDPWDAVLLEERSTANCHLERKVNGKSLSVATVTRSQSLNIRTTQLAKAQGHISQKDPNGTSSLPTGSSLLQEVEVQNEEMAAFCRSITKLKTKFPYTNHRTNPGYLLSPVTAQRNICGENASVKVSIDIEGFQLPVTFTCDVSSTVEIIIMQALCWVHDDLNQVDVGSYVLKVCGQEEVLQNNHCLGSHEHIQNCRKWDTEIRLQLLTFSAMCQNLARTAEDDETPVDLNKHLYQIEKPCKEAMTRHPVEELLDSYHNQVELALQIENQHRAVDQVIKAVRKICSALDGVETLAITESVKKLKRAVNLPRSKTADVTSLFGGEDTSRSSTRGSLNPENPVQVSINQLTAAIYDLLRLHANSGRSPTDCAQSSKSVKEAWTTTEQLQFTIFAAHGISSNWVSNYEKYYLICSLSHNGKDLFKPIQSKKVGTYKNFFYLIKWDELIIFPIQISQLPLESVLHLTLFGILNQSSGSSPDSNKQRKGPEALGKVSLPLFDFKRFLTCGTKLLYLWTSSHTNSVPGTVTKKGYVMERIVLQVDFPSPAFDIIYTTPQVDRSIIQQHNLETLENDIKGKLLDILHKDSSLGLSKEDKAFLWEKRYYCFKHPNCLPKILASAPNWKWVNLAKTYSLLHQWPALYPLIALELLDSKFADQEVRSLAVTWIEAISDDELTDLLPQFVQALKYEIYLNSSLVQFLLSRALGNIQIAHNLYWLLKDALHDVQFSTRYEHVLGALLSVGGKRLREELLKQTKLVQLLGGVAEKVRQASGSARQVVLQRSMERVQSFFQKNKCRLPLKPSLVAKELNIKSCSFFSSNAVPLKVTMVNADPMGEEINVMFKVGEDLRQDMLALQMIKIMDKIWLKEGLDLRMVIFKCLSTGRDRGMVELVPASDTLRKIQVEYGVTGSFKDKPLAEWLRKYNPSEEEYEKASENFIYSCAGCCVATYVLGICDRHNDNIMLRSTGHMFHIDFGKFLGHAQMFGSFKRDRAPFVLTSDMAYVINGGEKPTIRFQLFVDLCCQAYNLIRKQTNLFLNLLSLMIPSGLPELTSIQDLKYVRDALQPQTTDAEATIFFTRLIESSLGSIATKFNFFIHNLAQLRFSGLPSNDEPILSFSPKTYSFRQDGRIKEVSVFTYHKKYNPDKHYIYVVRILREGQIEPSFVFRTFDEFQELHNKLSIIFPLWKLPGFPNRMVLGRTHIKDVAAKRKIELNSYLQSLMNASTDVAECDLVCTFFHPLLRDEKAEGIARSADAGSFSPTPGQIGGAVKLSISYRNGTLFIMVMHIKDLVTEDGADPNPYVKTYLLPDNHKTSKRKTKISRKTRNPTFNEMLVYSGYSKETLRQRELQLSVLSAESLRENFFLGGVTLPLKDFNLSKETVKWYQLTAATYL

In the case of `CN(C(=O)CN1CCOCC1)c1ccc2sc3c(-c4cccc5c(=O)cc(N6CC7CCC(C6)O7)oc45)cccc3c2c1` [NU5455], the “number of γH2AX foci” value (MCF7 cells) is reported as “remained elevated even at 24 hours”, the “DNA-PKcs phosphorylation (Ser2056) in tumors” value ([1]; 72 hours of treatment, doxorubicin-loaded beads, immunohistochemistry) is reported as “reduced by NU5455 treatment” and the “DNA damage (γH2AX) in area surrounding doxorubicin-eluting beads” value ([1]; 72 hours, immunohistochemistry) is reported as “significantly augmented”. For the same compound, the “mean RTV4 value, monotherapy” value ([1]; NU5455 30 mg/kg b.i.d. with unloaded beads, or doxorubicin beads with vehicle) was 10.6 days, the “body weight or clinical condition versus vehicle alone” value ([1]; NU5455 30 mg/kg oral b.i.d. + doxorubicin-eluting beads) was “no additional impact” and the “mean RTV4 value, combination” value ([1]; NU5455 30 mg/kg oral b.i.d. + intratumoral doxorubicin-eluting beads) was 17.8 days. For the same compound, the IC50 (PI3K-C2α; [2]) was greater than 10 µM, the “Fold selectivity for DNA-PK” value (PI3K-C2α; versus PI3K-C2α) was greater than 1220 fold and the IC50 (PI3K-C2γ; [2]) was greater than 10 µM. The “Fold selectivity for DNA-PK” value (PI3K-C2γ; versus PI3K-C2γ) was greater than 1220 fold.
